Patent US20120067455A1, “Apparatus and Methods for Loading a Drug Eluting Medical Device” (Medtronic Vascular, Inc., priority 2010, published 2012)

Assay: Solubility of sirolimus in solvents and dispersion media
Assay type: physicochemical
Experimental: Solution 524 is a homogeneous mixture in which therapeutic substance 112 dissolves within a solvent or a solvent mixture. In one embodiment, solution 524 includes a high-capacity solvent 528 which is an organic solvent that has a high capacity to dissolve therapeutic substance 112. High capacity as utilized herein is defined as an ability to dissolve therapeutic substance 112 at concentrations greater than 500 mg of substance per milliliter of solvent. Examples of high capacity drug dissolving solvents for sirolimus and similar substances include but are not limited to tetrahydrofuran (THF), di-chloromethane (DCM), chloroform, and di-methyl-sulfoxide (DMSO). In addition to the high-capacity solvent, solution 524 may include an excipient 526 in order to assist in drug elution. In one embodiment, excipient 526 may be a surfactant such as but not limited to sorbitan fatty acid esters such as sorbitan monooleate and sorbitan monolaurate, polysorbates such as polysorbate 20, polysorbate 60, and polysorbate 80, cyclodextrins such as 2-hydroxypropyl-beta-cyclodextrin and 2,6-di-O-methyl-beta-cyclodextrin, sodium dodecyl sulfate, octyl glucoside, and low molecular weight poly(ethylene glycol)s. In another embodiment, excipient 526 may be a hydrophilic agent such as but not limited to salts such as sodium chloride and other materials such as urea, citric acid, and ascorbic acid. In yet another embodiment, excipient 526 may be a stabilizer such as but not limited to butylated hydroxytoluene (BHT). Depending on the desired drug load, a low capacity solvent can also be chosen for its reduced solubility of therapeutic substance 112. Low capacity is defined as an ability to dissolve therapeutic substance 112 at concentrations typically below 500 mg of drug per milliliter solvent. Examples of low capacity drug dissolving solvents for sirolimus and similar substances include but are not limited to methanol, ethanol, propanol, acetonitrile, ethyl lactate, acetone, and solvent mixtures like tetrahydrafuran/water (9:1 weight ratio). […]

Which results are given for CO[C@H]1C[C@@H]2CC[C@@H](C)[C@@](O)(O2)C(=O)C(=O)N2CCCC[C@H]2C(=O)O[C@H]([C@H](C)C[C@@H]2CC[C@@H](O)[C@H](OC)C2)CC(=O)[C@H](C)/C=C(\C)[C@@H](O)[C@@H](OC)C(=O)[C@H](C)C[C@H](C)/C=C/C=C/C=C/1C [sirolimus]?
solubility in supercritical carbon dioxide (SCCO2): low capacity; solubility in hexane (hexane): insoluble; solubility in water (water): insoluble
